In patent US9801372B2, “Polymers for increasing the soil mobility of low-solubility insecticides” (BASF SE, priority 2009, dated 2017):

Experimental: First, a calibration with the active ingredient to be determined is performed at a suitable wavelength in different concentrations. To study the solubilization with a polymeric solubilizer, a 1% by weight polymer solution is prepared and the UV absorption is measured at said wavelength. The polymer solution is saturated with the active ingredient to be analyzed and equilibrated for 24 h. After centrifugation of the solution and UV analysis of the supernatant at said wavelength, after subtracting the polymer absorption over the calibration curve, the dissolved active ingredient concentration can be concluded.
The fipronil concentration was determined by means of UV spectroscopy at 278 nm; to this end, the absorption of the polymer (1% by weight in water) was first determined alone. Subsequently, an excess of fipronil was added and the mixture was stirred at room temperature overnight. The centrifuged solution was analyzed once again at 278 nm in the UV instrument. After subtracting the appropriate solubilizer spectrum and comparing by means of a fipronil calibration curve produced beforehand, it was possible to determine the concentration of dissolved fipronil.

Row | Compound | Fipronil solubility in ppm [ppm]
1 | N#Cc1nn(-c2c(Cl)cc(C(F)(F)F)cc2Cl)c(N)c1[S+]([O-])C(F)(F)F (centres unmarked) [Fipronil] | 2.2
2 | Triton X-100 | 13
